The values that follow come from paper PMC7955127, “Preclinical small molecule WEHI-7326 overcomes drug resistance and elicits response in patient-derived xenograft models of human treatment-refractory tumors” (Cell Death & Disease, 2021).

Data set [1] in a line: Intravenous pharmacokinetics and tolerability in mice. Format: in vivo, male Swiss Outbred mice. The protocol:
Briefly, intravenous pharmacokinetics and systemic exposure of WEHI-7326 were assessed in non-fasted male Swiss Outbred mice. WEHI-7326 was administered via intravenous bolus injection (10 ml/kg dose volume) and blood samples were collected at 1, 2, 5, 15 and 30 min and 1, 2, 4, 7.5 and 24 h post-dose (n = 2 mice per time point). A maximum of two samples were obtained from each mouse, with samples being taken either via submandibular bleed (approximately 120 μl; conscious sampling) or terminal cardiac puncture (0.6 ml; while mice were anaesthetized using inhaled Isoflurane). Once collected, blood samples were centrifuged immediately, supernatant plasma was removed, and stored in −20 °C until analysis by LC-MS
Parameters were calculated with standard calculations: PlasmaCL=DoseIV/AUCIVVSS=AUMCIV/AUCIV*PlasmaCL
With plasma CL = plasma clearance, AUCIV = area under the plasma concentration vs. time profile, VSS = apparent volume of distribution at steady state, AUMCIV = area under the first moment of the plasma concentration versus time profile from time zero to infinity after IV administration.
a Measured physicochemical and solubility data for WEHI-7326. […] Microsomal-predicted EH values are included.

Data set [2] relates to MDA-MB-231, H1437, LoVo and PC3 cells. Kind of data set: Anti-proliferative activity in a panel of cancer cell lines (CellTiterGlo, 72 h). Format: cell-based, human. The protocol: (§1) Cells were plated at a density of between 500 to 5000 cells per well for adherent cell lines depending on doubling time, and 15,000 cells per well for lymphoblastic leukemia cell lines, in a 96-well plate in 200 μl of growth media. Plates were incubated overnight at 37 °C before adding the inhibitors. Inhibitors were serially diluted from the stock solutions in complete medium and added to the cells. Incubation in the presence of inhibitors was continued for 72 days. Cell viability was assessed by the AlamarBlue (Invitrogen) or CellTiterBlue/Glo (Promega) method according to manufacturer’s instructions. The curve fits and IC50 values were generated in PRISM (GraphPad, San Diego, CA).
On the technique in general: Cellular ATP, detected with luciferase, serves as a proxy for viable cell number.

The subject of a further data set is 24 T TNBC PDX. Kind of data set: TNBC PDX model 24T. Format: in vivo, NOD-SCID-IL2Rγc–/– mice. The protocol: Cohorts of about 30 female mice were seeded with thawed single cell suspensions of early passage human breast tumors (passage 2 or 3). Briefly, 150,000–250,000 cells were resuspended in 10 µl of transplantation buffer (50% fetal calf serum, 10% of a 0.04% trypan blue solution and 40% PBS) and growth-factor-reduced Matrigel [BD] at a ratio of 3:1, and injected into the cleared mammary fat pads of 3- or 4-week-old NOD-SCID-IL2Rγc–/– female mice. Mice were monitored for tumor development three times weekly and tumor size measured using digital Vernier calipers. Tumor volume was estimated by measuring the minimum and maximum tumor diameters using the formula: (minimum diameter)^2 x (maximum diameter)/2. Once tumors arose, mice were randomized into treatment arms. Treatment was initiated when the tumor volume reached 80–120 mm^3. Randomization and tumor measurements were managed using the Study Director software (v 3.0, studylog). Mice were sacrificed at the first measurement where tumor volume exceeded 600 mm^3, or if their health deteriorated for reasons other than disease progression or drug toxicity (censored event).
Mice were treated with either docetaxel (10 mg/kg; i.p.; once), cisplatin (4 mg/kg; i.p.; once) or WEHI-7326 (20 mg/kg; twice a week (Monday and Thursday); i.v.). Vehicle treated mice were administered with the vehicle for WEHI-7326. Docetaxel was resuspended at 2 mg/ml in PBS:Tween-80:ethanol = 90:5:5 (v/v/v). WEHI-7326 was resuspended at 2 mg/ml in saline.

Another data set deals with LIM 2537. Kind of data set: Cell growth inhibition assay, LIM 2537. Format: cell-based. As to conditions: Homo sapiens; LIM 2537, colon carcinoma; 72 h viability assay, CellTiterGlo; mean of 3 ± SEM; read-out: IC50 (inhibition of cellular proliferation). The protocol: as §1, with “Incubation in the presence of inhibitors was continued for 72 days.” left out
[3] abbreviates: mouse, plasma, iv, male Swiss outbred mice, i.v. 15 mg/kg.

Broadly, the clearance is a measure of how efficiently the substance is removed, as volume per time. Broadly, the half-life is how long it takes for the measured level to halve. The low end stands for fast loss, the high end for slow loss. On to `COc1ccc(CNc2nc(NCc3ccc(CN)cc3)nc(NN3CC(=O)NC3=O)n2)cc1` [WEHI-7326], for which the Adverse reactions result in data set [1] (Swiss outbred mice, i.v., up to a dose of 30 mg/kg) was “no adverse reactions or compound-related side effects”. In data set [1] (setting [3]), the clearance is 53 mL/min/kg and the half-life is 6.3 h. Also, the Vd in data set [1] (mouse, plasma, iv, male Swiss outbred mice, i.v. 15 mg/kg, read-out: Apparent volume of distribution) came to 4.7 L/kg. In addition, the “Anti-proliferative activity relative to myoseverin B” value in data set [2] is listed as “over 10 fold”. Also, the “Adverse effects in treatment arm” value with 24 T TNBC PDX (24 T PDX mice, 20 mg/kg i.v. twice a week, n = 7) is recorded as 1 sick, 1 found dead, 1 with back leg paralysis. The compound also came in with a Survival time with 24 T TNBC PDX (24 T PDX, docetaxel 10 mg/kg i.p. once, WEHI-7326 20 mg/kg i.v. biweekly) of 45 days. Also, in the data set on LIM 2537, the IC50 was found to be 58.9 ± 7.5 nM.
